{
  "source": "patent US20070027127A1",
  "about": "“Treatment of inflammatory oral diseases with a combination of inhibitors of TNF-alpha and immunosuppressive agents” (priority 2000, published 2007)",
  "test_system": "major RAS (recurrent aphthous stomatitis) mouth ulcers",
  "experiment": "Clinical example: treatment of a human patient with longstanding major RAS",
  "format": "in vivo",
  "experimental": "There follows a description of the successful treatment of a human patient according to the invention.\nThe patient was a healthy person who had longstanding major RAS. The ulcers were located throughout the patient's mouth and oropharynx. […] The patient, prior to this visit, had been treated with numerous forms of conventional therapy, including systemic steroids and other pharmaceutical agents. All treatments had failed.\nThe patient was treated according to the invention as follows. The patient was given PTX tablets (one 400 mg tablet per day), combined with a rinse of the topical steroid DECADRON®.",
  "data": [
    {"compound": "CC(=O)CCCCn1c(=O)c2c(ncn2C)n(C)c1=O", "note": "[PTX, 3,7-Dihydro-3,7-dimethyl-1-(5-oxohexyl)-1H-purine-2,6-dione]", "values": [
      {"measurement": "Mouth ulcer status reported by the patient", "setting": "approximately six months after initial treatment with PTX tablets plus DECADRON® rinse, then topical DECADRON® rinse on individual lesions", "result": "completely without mouth ulcers for the first time in eight years"},
      {"measurement": "Resolution of the patient's major lesions", "setting": "one patient, major RAS, PTX tablets (one 400 mg tablet per day) combined with a DECADRON® rinse, prior conventional therapies failed", "result": "completely resolved all of the patient's major lesions"}
    ]}
  ]
}
